Results as given in US6534516B1, “Androgen receptor modulator compounds and methods” (Ligand Pharmaceuticals Incorporated, priority 1996, dated 2003).
Like-named read-outs stand apart in the source and are kept apart here.

Tests used:
[1] = tested on: immature castrated male rat; experiment: Immature castrated male rat model with testosterone silastic implant, ventral prostate and seminal vesicle weights; assay type: in vivo; conditions: for ED50: Rattus norvegicus, po, 72 h; for Seminal Vesicles weight / Ventral Prostate weight: 3 days
Excerpt: The activity of selected compounds of the present invention as AR antagonists was *~ investigated in an immature castrated male rat model. A recognized test of the antiandrogen activity of a given compound, as described in L. G. Hershberger et al., 83 Proc. Soc. Exptl. […] Similar approaches have been used in the rat and in hamsters. […] Dermatol.
The basis of this assay is the fact that male sexual accessory organs, such as the prostate and seminal vesicles, play an important role in reproductive function. […] See F. Labrie et al., 16 Clin. Invest. […] However, this is not a major pathway since, in both animals and humans, castration without concomitant adrenalectomy leads to almost complete involution of the prostate and seminal vesicles. […] See M. C. […] Since the male sex organs are the tissues most responsive to modulation by androgen activity, this model is used to determine the androgen-dependent growth of the sex accessory organs in immature castrated rats.
Immature male rats (50-60 g, 21 day-old Sprague-Dawley, Harlan) were castrated under metofane anesthesia. […] As a negative control, a group of castrated animals received empty 10 mm silastic implants. Animal groups were dosed for 3 days by oral gavage as follows:
At the end of the 3-day treatment, the animals were sacrificed, and the ventral prostates and seminal vesicles were collected and weighed. Organ weight data were normalized to body weight of each animal and expressed as mg/100 g body weight. Results were analyzed by analysis of variance followed by the Dunnett's test. Data were transformed to comply with the normality and variance homogeneity criteria required to utilize the analysis of variance and Dunnett's test. The following data transformations were used for the ventral prostate and seminal vesicle: square root and power 0.7 respectively. Thereafter, the data were fitted to a four-parameter logistic equation and potencies derived from the fitted estimates. The same data transformations were used for the equation-fitting phase of the data analysis.
The gain and loss of sexual organ weights reflect the changes of cell number (DNA content) and cell mass (protein content), depending upon the serum androgen concentrations. […] Therefore, measurement of organ wet weights is sufficient to indicate the bioactivity of androgens and androgen antagonists.

human AR = target: T1, human AR (Homo sapiens, UniProt P10275); experiment: cell-based; conditions: read-out: AR Binding Ki
T1 construct: expressed in transfected cells; host or cells: CV-1 cells (African green monkey kidney fibroblasts)
T1 sequence (P10275 1-920): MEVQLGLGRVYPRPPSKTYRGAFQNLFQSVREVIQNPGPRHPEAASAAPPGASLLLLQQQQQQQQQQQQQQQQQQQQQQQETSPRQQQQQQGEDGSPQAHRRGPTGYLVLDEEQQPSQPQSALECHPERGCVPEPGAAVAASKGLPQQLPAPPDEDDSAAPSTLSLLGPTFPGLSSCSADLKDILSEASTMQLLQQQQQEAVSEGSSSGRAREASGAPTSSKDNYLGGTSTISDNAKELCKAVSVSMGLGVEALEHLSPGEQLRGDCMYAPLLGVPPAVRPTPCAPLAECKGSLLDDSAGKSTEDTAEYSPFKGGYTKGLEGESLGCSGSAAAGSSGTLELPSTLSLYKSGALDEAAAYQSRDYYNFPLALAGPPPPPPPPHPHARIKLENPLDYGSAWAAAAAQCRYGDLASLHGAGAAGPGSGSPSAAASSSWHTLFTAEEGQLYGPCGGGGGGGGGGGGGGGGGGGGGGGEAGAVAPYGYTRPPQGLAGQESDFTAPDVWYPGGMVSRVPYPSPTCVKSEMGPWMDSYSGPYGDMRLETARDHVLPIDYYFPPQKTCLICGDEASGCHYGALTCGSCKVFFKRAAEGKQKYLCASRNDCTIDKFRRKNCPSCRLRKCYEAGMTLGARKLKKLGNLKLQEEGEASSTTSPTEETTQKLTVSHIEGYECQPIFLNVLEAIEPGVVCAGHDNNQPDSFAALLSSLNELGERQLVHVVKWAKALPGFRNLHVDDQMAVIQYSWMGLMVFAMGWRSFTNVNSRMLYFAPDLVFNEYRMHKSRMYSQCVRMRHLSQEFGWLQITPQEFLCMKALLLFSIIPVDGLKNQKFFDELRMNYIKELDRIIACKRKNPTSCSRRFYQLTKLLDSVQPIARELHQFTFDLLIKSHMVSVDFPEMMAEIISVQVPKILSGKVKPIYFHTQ

PR = target: T2, PR (Homo sapiens, UniProt P06401); experiment: cell-based
T2 sequence (P06401 1-933): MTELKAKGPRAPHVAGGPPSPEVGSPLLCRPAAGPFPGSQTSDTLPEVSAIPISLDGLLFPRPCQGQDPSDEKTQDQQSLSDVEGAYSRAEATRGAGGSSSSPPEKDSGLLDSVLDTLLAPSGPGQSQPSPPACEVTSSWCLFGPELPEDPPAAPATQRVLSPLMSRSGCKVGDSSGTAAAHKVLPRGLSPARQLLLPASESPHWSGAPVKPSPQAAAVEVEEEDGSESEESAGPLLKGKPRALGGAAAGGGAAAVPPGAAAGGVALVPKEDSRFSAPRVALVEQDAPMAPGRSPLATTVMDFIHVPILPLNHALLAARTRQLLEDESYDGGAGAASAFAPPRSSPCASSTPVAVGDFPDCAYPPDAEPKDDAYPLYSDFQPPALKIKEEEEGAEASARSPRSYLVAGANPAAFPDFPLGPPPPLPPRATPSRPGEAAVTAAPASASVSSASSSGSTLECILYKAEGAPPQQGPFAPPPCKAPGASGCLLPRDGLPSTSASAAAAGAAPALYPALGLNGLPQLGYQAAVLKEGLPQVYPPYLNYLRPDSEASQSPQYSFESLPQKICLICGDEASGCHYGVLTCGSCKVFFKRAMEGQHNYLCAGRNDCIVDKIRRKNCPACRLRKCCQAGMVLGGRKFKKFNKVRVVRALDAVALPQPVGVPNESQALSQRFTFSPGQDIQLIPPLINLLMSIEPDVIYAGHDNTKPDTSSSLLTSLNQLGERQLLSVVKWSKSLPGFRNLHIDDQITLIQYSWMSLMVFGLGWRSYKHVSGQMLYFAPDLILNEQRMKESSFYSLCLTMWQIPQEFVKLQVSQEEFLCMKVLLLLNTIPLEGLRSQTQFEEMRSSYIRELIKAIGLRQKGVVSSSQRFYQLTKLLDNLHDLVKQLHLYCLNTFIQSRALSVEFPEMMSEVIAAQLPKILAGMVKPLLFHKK

SMILES: CC1(C)CCc2cc3c(C(F)(F)F)c(F)c(=O)[nH]c3cc2N1 [Compound 105, 7-Fluoro-1,2,3,4-tetrahydro-2,2-dimethyl-6-trifluoromethyl-8-pyridono[5,6-g]quinoline]
- suppression of seminal vesicle weight relative to castrate levels (in words) ([1]; 30 mg/kg): complete suppression to castrate levels
- suppression of ventral prostate weight relative to castrate levels (in words) ([1]; 30 mg/kg): suppresses ventral prostate weight to castrate levels
- ED50 ([1]; read-out: Potency (ED50) Weighted Average ± SE, Seminal Vesicle Weight): 7.5 ± 1.3 mg/kg
- ED50 ([1]; read-out: Potency (ED50) Weighted Average ± SE, Ventral Prostate Weight): 3.1 ± 0.7 mg/kg
- Seminal Vesicles weight ([1]; T implant + 0.1 mg/kg oral): 28.1 ± 3.6 (5) mg/100 g body weight
- Ventral Prostate weight ([1]; T implant + 0.1 mg/kg oral): 74.8 ± 5.4 (5) mg/100 g body weight
- Seminal Vesicles weight ([1]; T implant + 1 mg/kg oral): 27.4 ± 1.7 (5) mg/100 g body weight
- Ventral Prostate weight ([1]; T implant + 1 mg/kg oral): 63.6 ± 6.6 (5) mg/100 g body weight
- Seminal Vesicles weight ([1]; T implant + 3 mg/kg oral): 24.9 ± 0.9 (5) mg/100 g body weight
- Ventral Prostate weight ([1]; T implant + 3 mg/kg oral): 48.4 ± 6.6 (5) mg/100 g body weight
- Seminal Vesicles weight ([1]; T implant + 10 mg/kg oral): 15.2 ± 0.3 (5) mg/100 g body weight
- Ventral Prostate weight ([1]; T implant + 10 mg/kg oral): 40.0 ± 1.3 (5) mg/100 g body weight
- Seminal Vesicles weight ([1]; T implant + 30 mg/kg oral): 7.1 ± 1.4 (5) mg/100 g body weight
- Ventral Prostate weight ([1]; T implant + 30 mg/kg oral): 24.6 ± 2.0 (5) mg/100 g body weight
- Seminal Vesicles weight ([1]; T implant + 100 mg/kg oral): 7.6 ± 1.4 (5) mg/100 g body weight
- Ventral Prostate weight ([1]; T implant + 100 mg/kg oral): 23.6 ± 2.2 (5) mg/100 g body weight
- Ki (human AR): 21 ± 11 nM
- IC50 (PR): 160 nM
